Laboratory results: patent US20250009844A1, “MATURATION OF MUCOSAL DEFENSE AND GUT/LUNG FUNCTION IN THE PRETERM INFANT” (Novozymes A/S, priority 2017, published 2025)
Entries after “also recorded” stand apart in the source; their conditions may differ. No end group written: not given here.

Key:
SCID mice = assay: Therapeutic, murine, 14 weeks, CD4+CD25+ T cell transfer induced colitis model (Example 4); type: in vivo
Description: Treatment regime: 70 female BALB/c mice housed in groups of five per cage were allocated to 7 different treatment groups. Colitis was induced in SCID mice by transplantation of CD4+CD25 Tcells from BALB/c mice. Lymphocytes isolated from spleen and lymph nodes from BALB/c mice were subjected to negative selection of CD4+Tcells. Afterwards, CD4+CD25+cells were positively isolated by binding to the beads from the CD4+Tcell suspensions and the CD4+CD25—were collected from the supernatant. The animals were treated with hBD-2, 0.1 mg/kg s.c. once daily 86consecutive days from day 7 (OD); 1 mg/kg s.c. OD or 3 mg/kg s.c. OD;with mouse anti TNFa 100 μg/mouse s.c. twice weekly (enbrel); with dexamethasone 0.3 mg/kg intraperitoneally OD (dex); with PBS s.c. as vehicle from day 7 and 86 consecutive days (vehicle) or sham treated (sham).
Treatment groups: • 1. 0.1 mg/kg hBD-2, once daily subcutaneously (n=11) • 2. 1 mg/kg hBD-2, once daily subcutaneously (n=11) • 3. 3 mg/kg hBD-2, once daily subcutaneously (n=11) • 4. PBS (hBD-2 vehicle), once daily subcutaneously (n=11) • 5. 0.3 mg/kg Dexamethasone, once daily intraperitoneally (n=11) • 6. 100 μg/mouse soluble human 75-kilodalton TNF receptor linked to Fc portion of IgG1 (Enbrel), twice a week subcutaneously (n=11) • 7. Sham treated group (n=6)
Clinical assessment was based on body weight loss, stool consistency and presence of blood per rectum. The animals were sacrificed on day 95 and colon removed for assessment of weight and myeloperoxidase activity.

PBMC cells = assay: PBMC cell viability, Alamar Blue, 24 hours (Example 8); type: cell-based, human; settings: 1, 10 and 40 μg/ml, 0.6 and 20.0 pg/ml LPS
Experimental: FIG. 39. Cell viability of PBMC cells following exposure for 24 hours to Alamar Blue and HD5, hBD-1, hBD-2, hBD-3 and hBD-4 at concentrations of 1, 10 and 40 μg/ml.
PBMC cell viability following exposure for 24 hours to Alamar Blue and HD5,hBD-1, hBD-2, hBD-3 and hBD-4 at concentrations of 1, 10 and 40 μg/ml at 0.6 and 20.0 pg/ml LPS respectively (FIG. 39).

[1] = tested on: gut epithelial cell lines; settings: cited from earlier work
neonatal rat model = settings: cited from earlier work
[2] = Therapeutic high fat diet model in diet-induced obese mice, weight and fat percentage (Example 2); type: in vivo
Description: (§1) The overall design of the study is shown in FIG. 1, lower panel, “Therapeutic study”. Mice and diets. The experiment elucidates the effect of hBD-2 and HD5 on the microbiota in diet-induced obese mice. A run-in period of 13 weeks where mice were fed a very HFD (60% energy from fat) preceded the intervention. Only mice meeting the criteria of a minimum of 12 gram weight gain (approximately 50% of initial bodyweight) during the run-in period were included in the final analyses. […] They were exposed to all experimental tests, but excluded from the analyses.
(§2) Treatment regimen. Before the intervention all mice were MR scanned. Cages of mice were allocated to experimental groups based on their fat mass. All subsequent measures were paired with data from the same mouse before the intervention. A LFD (low fat diet) reference group was running in parallel. As controls for the intervention 2 additional groups were included: a) very HFD and b) LFD. Experimental mice stayed on the very HFD during the intervention. The mice were on the experimental diet for 10 weeks. They were co-housed throughout the experiment, 4 mice per cage, 3 cages per group. All tests ran over 3 days, 1 cage per group per day.

BALB/c mice = assay: Murine model of acute graft versus host disease, oral HD5 (Example 13); type: in vivo
Experimental: Treatment regime: 22 female BALB/c mice were irradiated with 4.5 Gy (2×498 sec) at intervals of at least 4 hours on day 0. Bone marrow was harvested: hind limbs harvested from 2 female WT C57BL/6 mice aseptically. Skeletal muscle was removed and epiphysis cut away. Lumen of bone flushed with PBS and cells pelleted and taken up. Harvest of T-cells: spleens from 2 female WT C57BL/6 mice were meshed through a […] cell strainer into a PBS filled dish. Cells were taken up in PBS and transferred into a 50 mL falcon tube and spun down. Cells were taken up in 1 mL PBS and 20 μL of CD4 microbead +20 μL CD8 microbeads per spleen added for incubation for 20 min at 4 degrees C. Cells were washed with PBS and applied to MACS separation in order to positively select CD4+ and CD8+ cells. Positively selected T-cells were counted and taken up. Transplantation: directly after the second irradiation, all WT BALB/c recipient mice were injected with 5×1.000.000 BM cells (50 μL) i.v. into the retroorbital venous plexus under isoflurane anesthesia. 22 BALB/c mice were treated with 1.2 mg of HD5/kg BW/day; 1.2 mg of hBD-2/kg BW/day or 100 μL of PBS per day vial oral gavage from day 0-10.
Survival was monitored for 60 days.

[3] = tested on: microbiota of the intestine; assay: Therapeutic high fat diet model in diet-induced obese mice, 16S microbial analyses (Example 2); type: in vivo
Description: as §1, §2
(§3) Microbial analyses were carried out to study the microbiota of the intestine. Longitudinal 16S characterization was conducted on 4 paired samples from 60 mice, 240 samples in total. Each mouse was sampled prior to diet change, 1 week post diet change, 4 weeks post diet change and at termination, thus ensuring a thorough characterization of the faecal microbiota as a result of defensin treatment.

[4] = tested on: bacteria localization at the surface of the intestinal mucosa; assay: Localization of bacteria by FISH with mucin immunostaining, lysis zone (Example 14); type: in vivo; settings: orally administered; compared with mice on a low fat or western diet
Experimental: Immunostaining of mucins and localization of bacteria by FISH Mucus immunostaining was paired with fluorescent in situ hybridization (FISH), as previously described in order to analyze bacteria localization at the surface of the intestinal mucosa. Briefly, colonic tissues (proximal colon, 2nd cm from the cecum) without fecal material were placed in methanol-Carnoy's fixative solution (60% methanol, 30% chloroform, 10% glacial acetic acid) for a minimum of 3 hours at room temperature. Tissues were then washed in methanol 2×30 min, ethanol 2×15 min, ethanol/xylene (1:1), 15 min and xylene 2×15 min, followed by embedding in Paraffin with a vertical orientation. Five μm sections were performed and dewax by preheating at 60° C. for 10 min, followed by xylene 60° C. for 10 min, xylene for 10 min and 99.5% ethanol for 10 minutes. Hybridization step was performed at 50° C. overnight with EUB338 probe (5′-GCTGCCTCCCGTAGGAGT-3′, with a 5′ labeling using Alexa 647) diluted to a final concentration of 10 μg/mL in hybridization buffer (20 mM Tris-HCl, pH 7.4, 0.9 M NaCl, 0.1% SDS, 20% formamide). After washing 10 min in wash buffer (20 mM Tris-HCl, pH 7.4, 0.9 M NaCl) and 3×10 min in PBS, PAP pen (Sigma-Aldrich) was used to mark around the section and block solution (5% fetal bovine serum in PBS) was added for 30 min at 4° C. […]

[5] = tested on: microbiota of the intestine; assay: Prophylactic high fat diet murine model, 16S microbial analyses (Example 1); type: in vivo, mice
Description: The overall experimental design is shown in FIG. 1, top panel “Prophylactic study”. Mice: Mice were housed in trios, 4 cages per group. Feed intake was registered daily just before lights were turned off at 6 pm. Individual mice were subjected to experimental procedures in altered order both group and cage wise. Mice were kept at room temperature under a 12-hour light/dark cycle at SPF standard conditions. Diets: For dosing, the average weight was estimated to be 25 grams per mouse. Mice eat approximately 3 grams of feed per mouse per day.
Treatment regime: Mice were fed either a high fat diet (HFD) or a low fat (LF) control diet. The HFD contained 4 subgroups; a) hBD-2, b) HD5, c) hBD-2/HD5 and d) standard HFD without supplementation of defensins. Defensin concentration was 1,2 mg hBD-2 per kg mouse per day. HD5 was given in equimolar concentration to hBD-2.
as §3

[6] = same three dosing regimens, sacrifice day 95

Substance: Enbrel [reference compound]
- Clinical score (body weight loss, stool consistency, blood per rectum) (SCID mice; hBD-2 1 mg/kg s.c. OD, Dexamethasone 0.3 mg/kg i.p. OD, Enbrel 100 μg/mouse s.c. twice weekly, from day 7): statistically significant and similar effect on clinical score
- Colon weight (SCID mice; [6]): statistically significant and similar effect on colon weight
- Myeloperoxidase activity in intestinal tissue (SCID mice; [6]): statistically significant and similar effect

Substance: human beta defensin 1 (DHYNCVSSGGQCLYSACPIFTKIQGTCYRGKAKCCK; ends and bridges not checked; cysteine pairing not given here; listed as Homo sapiens) [hBD-1]
- Toxicity (PBMC cell viability) (PBMC cells): not toxic irrespectively of concentration; also recorded: not to be toxic

Substance: human beta defensin 3 (GIINTLQKYYCRVRGGRCAVLSCLPKEEQIGKCSTRGRKCCRRK; ends and bridges not checked; cysteine pairing not given here; listed as Homo sapiens) [hBD-3]
- Toxicity [1]: not to be toxic
- Toxicity (PBMC cell viability) (PBMC cells): profoundly increasing toxicity; also recorded: toxic
- Incidence of NEC (neonatal rat model): decrease the incidence of NEC

Substance: human beta defensin 4 (ELDRICGYGTARCRKKCRSQEYRIGRCPNTYACCLRK; ends and bridges not checked; cysteine pairing not given here; listed as Homo sapiens) [hBD-4]
- Toxicity (PBMC cell viability) (PBMC cells): moderately increasing toxicity; also recorded: moderately toxic

Substance: human intestinal alpha defensin 5 (ATCYCRTGRCATRESLSGVCEISGRLYRLCCR; listed as Homo sapiens) [HD5]
- Fat percentage ([2]; 4 weeks after dietary change, HFD plus HD5 vs HFD control, p=0.009): significantly lower fat percentage
- Fat percentage, course ([2]; HFD plus HD5 group after dietary intervention): tendency of decreasing fat percentage
- Weight gain ([2]; after dietary intervention, HFD plus HD5 vs HFD control, p<0.05): gained significantly less weight than the HFD control
- Animals that had died by day 60 (BALB/c mice; 1.2 mg/kg BW/day oral gavage day 0-10, HD5 group of 8, PBS six out of eight died): 2
- Mortality (BALB/c mice; 22 mice, oral treatment for 10 days): significant reduction of mortality
- Toxicity (PBMC cell viability) (PBMC cells): not toxic irrespectively of concentration; also recorded: not to be toxic
- Abundance of Alloprevotella ([3]; colon, therapeutic intervention, HD5 p<0.02): increased the abundance of Alloprevotella statistically significantly
- Relative abundance of Bifidobacteriaceae ([3]; small intestine, hBD-2 p<0.0001): trend towards HD5 increasing the abundance of Bifidobacteriaceae
- Distance from the intestinal lining to bacterial population (lysis zone) [4]: profound effect on the distance
- Microbial presence and abundance (unifrac, genus analysis) ([5]; prophylactic oral defensin in HFD, 1,2 mg hBD-2 per kg per day, HD5 equimolar, mix 50%+50%): affected primarily the microbial abundance
- Abundance of Allobaculum ([5]; small intestine, prophylaxis, p<0.02): statistically significant increase of abundance of Allobaculum
